Laboratory results as given in US12240862B2, “Inhibitors of peptidylarginine deiminases” (Gilead Sciences, Inc., priority 2020, dated 2025).

molecular target: T1, human PAD4 (Homo sapiens, UniProt Q9UM07); assay: In vitro PAD4 BAEE biochemical assay; settings: human PAD4, BAEE substrate; 5 nM PAD4, 2 mM calcium chloride, 3 mM BAEE; geometric mean of multiple experiments
T1 construct: human PAD4 (NM_012387), A2P663, was PCR amplified; His-SUMO (N, cleaved yes); made in house; host or cells: E. coli BL21(DE3)
Method in brief: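 Tag-free recombinant hPAD4 (5 nM), 2 mM CaCl2, 3 mM BAEE, 50 mM MOPS pH 7.6, 2 mM DTT; 30 min compound preincubation, 2 h reaction, all 25 °C. EDTA quench; ammonia read via o-phthalaldehyde amine coupling, 1 h.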

T1 sequence (Q9UM07 2-663): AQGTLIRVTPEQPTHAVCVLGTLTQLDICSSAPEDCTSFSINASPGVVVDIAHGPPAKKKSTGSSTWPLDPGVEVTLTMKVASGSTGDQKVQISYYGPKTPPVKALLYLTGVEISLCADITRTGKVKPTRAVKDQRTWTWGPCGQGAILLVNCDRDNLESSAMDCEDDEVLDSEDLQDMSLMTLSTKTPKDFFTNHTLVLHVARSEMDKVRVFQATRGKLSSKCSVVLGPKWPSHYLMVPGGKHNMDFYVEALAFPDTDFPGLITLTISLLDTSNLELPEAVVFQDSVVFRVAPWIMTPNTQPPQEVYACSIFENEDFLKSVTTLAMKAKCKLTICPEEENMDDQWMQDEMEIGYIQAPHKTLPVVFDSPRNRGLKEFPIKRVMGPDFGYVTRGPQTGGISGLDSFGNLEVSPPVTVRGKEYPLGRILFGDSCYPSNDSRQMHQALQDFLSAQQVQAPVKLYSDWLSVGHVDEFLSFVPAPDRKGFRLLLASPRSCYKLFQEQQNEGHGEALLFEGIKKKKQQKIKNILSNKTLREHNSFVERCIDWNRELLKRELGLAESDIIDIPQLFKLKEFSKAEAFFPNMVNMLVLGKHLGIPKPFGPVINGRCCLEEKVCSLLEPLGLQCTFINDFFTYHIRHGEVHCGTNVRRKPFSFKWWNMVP

Row | SMILES | IC50 [µM]
1 | COc1cc(C(=O)N2[C@H]3CC[C@@H]2[C@H](N)C3)cc2nc(-c3cc4ccc([C@@H](C)Nc5ncc(F)cn5)nc4n3CC3CC3)c(C)n12 [Example 264, [(1~{R},2~{R},4~{S})-2-amino-7-azabicyclo [2.2.1]heptan-7-yl]-[2-[1-(cyclopropylmethyl)-6-[(1~{R})-1-[(5-fluoropyrimidin-2-yl)amino]ethyl]pyrrolo[2,3-b]pyridin-2-yl]-5-methoxy-3-methylimidazo[1,2-a]pyridin-7-yl]methanone] | 0.134
2 | COc1cc(C(=O)N2[C@H]3CC[C@@H]2[C@H](N)C3)cc2nc(-c3cc4ccc([C@@H](C)Nc5ncccn5)nc4n3CC3CC3)c(C)n12 [Example 265, ((1R,2R,4S)-2-amino-7-azabicyclo[2.2.1]heptan-7-yl)(2-(1-(cyclopropylmethyl)-6-((R)-1-(pyrimidin-2-ylamino)ethyl)-1H-pyrrolo[2,3-b]pyridin-2-yl)-5-methoxy-3-methylimidazo[1,2-a]pyridin-7-yl)methanone] | 0.072
3 | COc1cc(C(=O)N2C[C@H]3CC[C@@H]2[C@@H]3N)cc2nc(-c3cc4ccc([C@@H](C)Nc5ncccn5)nc4n3CC3CC3)c(C)n12 [Example 266, ((1R,4R,7R)-7-amino-2-azabicyclo[2.2.1]heptan-2-yl)(2-(1-(cyclopropylmethyl)-6-((R)-1-(pyrimidin-2-ylamino)ethyl)-1H-pyrrolo[2,3-b]pyridin-2-yl)-5-methoxy-3-methylimidazo [1,2-a]pyridin-7-yl) methanone] | 0.341
4 | COc1cc(C(=O)N2CCC[C@@H](N)C2)cc2nc(-c3cc4ccc([C@@H](C)NCC(F)(F)F)nc4n3CC3CC3)c(C)n12 [Example 267, [(3~{R})-3-aminopiperidin-1-yl]-[2-[1-(cyclopropylmethyl)-6-[(1~{R})-1-(2,2,2-trifluoroethylamino)ethyl]pyrrolo[2,3-b]pyridin-2-yl]-5-methoxy-3-methylimidazo[1,2-a]pyridin-7-yl]methanone] | 0.521
5 | COc1cc(C(=O)N2CCC[C@@H](N)C2)cc2nc(-c3cc4ccc([C@@H](C)NS(C)(=O)=O)nc4n3CC3CC3)c(C)n12 [Example 268, ~{N}-[(1~{R})-1-[2-[7-[(3~{R})-3-aminopiperidine-1-carbonyl]-5-methoxy-3-methylimidazo [1,2-a]pyridin-2-yl]-1-(cyclopropylmethyl)pyrrolo [2,3-b]pyridin-6-yl]ethyl]methanesulfonamide] | 0.257

The remaining molecules from weak to strong by IC50, led by results:

Row | IC50 [µM] | SMILES
6 | 0.0711 | COc1cc(C(=O)N2[C@H]3CC[C@@H]2[C@H](N)C3)cc2nc(-c3cc4ccc([C@@H](C)Nc5cnccn5)nc4n3CC3CC3)c(C)n12 [Example 263, [(1~{R},2~{R},4~{S})-2-amino-7-azabicyclo [2.2.1]heptan-7-yl]-[2-[1-(cyclopropylmethyl)-6-[(1~{R})-1-(pyrazin-2-ylamino)ethyl]pyrrolo [2,3-b]pyridin-2-yl]-5-methoxy-3-methylimidazo[1,2-a]pyridin-7-yl]methanone]
7 | 0.0678 | COc1cc(C(=O)N2[C@H]3CC[C@@H]2[C@H](N)C3)cc2nc(-c3cc4ccc([C@@H](C)N5C(=O)CCC5C)nc4n3CC3CC3)c(C)n12 (some centres unmarked) [Example 269, 1-[(1~{R})-1-[2-[7-[(1~{R},2~{R},4~{S})-2-amino-7-azabicyclo[2.2.1]heptane-7-carbonyl]-5-methoxy-3-methylimidazo [1,2-a]pyridin-2-yl]-1-(cyclopropylmethyl)pyrrolo [2,3-b]pyridin-6-yl]ethyl]-5-methylpyrrolidin-2-one]
8 | 0.0347 | COc1cc(C(=O)N2[C@H]3CC[C@@H]2[C@H](N)C3)cc2nc(-c3cc4ccc([C@@H](C)N5CCN(C)C5=O)nc4n3CC3CC3)c(C)n12 [Example 270, 1-[(1~{R})-1-[2-[7-[(1~{R},2~{R},4~{S})-2-amino-7-azabicyclo[2.2.1]heptane-7-carbonyl]-5-methoxy-3-methylimidazo [1,2-a]pyridin-2-yl]-1-(cyclopropylmethyl)pyrrolo [2,3-b]pyridin-6-yl]ethyl]-3-methylimidazolidin-2-one]
